Drawing on patent US10131669B2, “Pyrazolopyrimidine compounds” (Pfizer Inc., priority 2014, dated 2018), this text covers IC50 for 22 compounds.

Type in all cases: biochemical
The target in one experiment is T1, Human PDE4B1 (Homo sapiens, UniProt Q07343, S133E/S654A/S659A/S661A).
T1 construct: His6 (N); thrombin cleavage site (N); made in house; host or cells: insect cells (baculovirus, pFastBac)
Briefly: PDE4B1 Scintillation Proximity Assay (SPA), inhibition of enzyme activity. Conditions: geometric mean of 2-7 determinations unless otherwise indicated (b: ≥8 determinations; c: single determination); 1 μM cAMP, 30 min at 25° C.; read-out: Human PDE4B FL; IC50. A digest of the protocol:
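His-tagged human PDE4B1 expressed in insect cells and purified by Ni-NTA and Source 15Q was assayed in 50 mM Tris pH 7.5, 1.3 mM MgCl2, 0.01% Brij. The substrate was 1 μM cAMP with ³H-cAMP tracer, at about 20% conversion, for 30 min at 25 °C. Yttrium silicate SPA beads stopped the reaction; counts were read after 8 h settling.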
In general terms: Scintillation proximity formats need no separation of bound from free tracer.

The next experiment addresses T2, Human PDE4C1 (Homo sapiens, UniProt Q08493).
T2 construct: His6 (N); FLAG (C); made in house; host or cells: insect cells (baculovirus, pFastBac)
Briefly: PDE4C1 Scintillation Proximity Assay (SPA), inhibition of enzyme activity. As to conditions: geometric mean of 2-7 determinations unless otherwise indicated (b: ≥8 determinations; c: single determination), 1 μM cAMP, 30 min at 25° C., read-out: Human PDE4C FL. A digest of the protocol: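 Human recombinant FLAG/His-purified PDE4C1 from insect cells at 40 pM, with 1 μM cAMP (3H-cAMP tracer) in Tris pH 7.5, 1.3 mM MgCl2, 0.01% Brij, ~20% substrate turnover. Incubation 30 min at 25° C with a range of inhibitor concentrations. Stopped with yttrium silicate SPA beads and read by scintillation after 8 h settling.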

Another experiment addresses T3, human PDE4D3 (Homo sapiens, UniProt Q08499).
T3 construct: His6 (C); made in house; host or cells: insect cells (baculovirus, pFastBac)
As to the kind of experiment: PDE4D3 Scintillation Proximity Assay (SPA), inhibition of enzyme activity. As to conditions: geometric mean of 2-7 determinations unless otherwise indicated (b: ≥8 determinations; c: single determination); 1 μM cAMP, 30 min at 25° C.; read-out: Human PDE4D FL; IC50. A digest of the protocol:
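Recombinant enzyme from insect cells, Ni-NTA and Q Sepharose purified, used at 10 pM in 50 mM Tris pH 7.5, 1.3 mM MgCl2, 0.01% Brij. Substrate 1 μM cAMP with 3H-cAMP tracer, ~20% conversion, inhibitor range, 30 min at 25°C. Stopped with yttrium silicate SPA beads and scintillation read.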

The next experiment has as its target T4, Human PDE4A3 (Homo sapiens, UniProt P27815).
T4 construct: His6 (N); FLAG (C); made in house; host or cells: insect cells (baculovirus, pFastBac)
Briefly: PDE4A3 Scintillation Proximity Assay (SPA), inhibition of enzyme activity. As to conditions: geometric mean of 2-7 determinations unless otherwise indicated (b: ≥8 determinations; c: single determination), 1 μM cAMP, 30 min at 25° C., read-out: Human PDE4A FL. The method, boiled down:
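Human PDE4A3 (aa 2–825, His6/FLAG-tagged, insect-cell expressed) at 80 pM hydrolyses 1 μM cAMP including 20 nM 3H-cAMP, ~20% conversion. Buffer is 50 mM Tris pH 7.5, 1.3 mM MgCl2, 0.01% Brij. Incubated 30 min at 25 °C with inhibitor range, stopped with yttrium silicate SPA beads, read after 8 h settling.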

T2 sequence (Q08493 2-712): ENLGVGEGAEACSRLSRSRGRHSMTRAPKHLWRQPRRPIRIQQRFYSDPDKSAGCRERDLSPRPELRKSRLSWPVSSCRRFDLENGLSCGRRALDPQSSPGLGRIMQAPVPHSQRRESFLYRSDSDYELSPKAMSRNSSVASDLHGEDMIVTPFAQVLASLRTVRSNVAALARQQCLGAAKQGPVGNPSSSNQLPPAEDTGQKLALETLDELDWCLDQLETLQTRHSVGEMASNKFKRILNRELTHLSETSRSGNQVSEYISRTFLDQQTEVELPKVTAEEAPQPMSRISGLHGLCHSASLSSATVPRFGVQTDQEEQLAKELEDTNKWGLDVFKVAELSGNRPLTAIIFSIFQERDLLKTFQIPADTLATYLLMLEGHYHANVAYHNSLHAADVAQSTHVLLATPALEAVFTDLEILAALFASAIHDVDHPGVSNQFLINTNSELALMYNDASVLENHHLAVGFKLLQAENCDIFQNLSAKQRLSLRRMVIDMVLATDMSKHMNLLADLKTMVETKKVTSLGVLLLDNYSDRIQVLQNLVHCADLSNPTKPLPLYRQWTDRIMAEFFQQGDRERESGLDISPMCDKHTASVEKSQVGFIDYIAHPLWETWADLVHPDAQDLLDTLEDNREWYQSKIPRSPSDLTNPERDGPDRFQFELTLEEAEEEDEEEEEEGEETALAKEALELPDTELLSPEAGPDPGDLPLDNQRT
T1 sequence (Q07343 122-736 S133E/S654A/S659A/S661A): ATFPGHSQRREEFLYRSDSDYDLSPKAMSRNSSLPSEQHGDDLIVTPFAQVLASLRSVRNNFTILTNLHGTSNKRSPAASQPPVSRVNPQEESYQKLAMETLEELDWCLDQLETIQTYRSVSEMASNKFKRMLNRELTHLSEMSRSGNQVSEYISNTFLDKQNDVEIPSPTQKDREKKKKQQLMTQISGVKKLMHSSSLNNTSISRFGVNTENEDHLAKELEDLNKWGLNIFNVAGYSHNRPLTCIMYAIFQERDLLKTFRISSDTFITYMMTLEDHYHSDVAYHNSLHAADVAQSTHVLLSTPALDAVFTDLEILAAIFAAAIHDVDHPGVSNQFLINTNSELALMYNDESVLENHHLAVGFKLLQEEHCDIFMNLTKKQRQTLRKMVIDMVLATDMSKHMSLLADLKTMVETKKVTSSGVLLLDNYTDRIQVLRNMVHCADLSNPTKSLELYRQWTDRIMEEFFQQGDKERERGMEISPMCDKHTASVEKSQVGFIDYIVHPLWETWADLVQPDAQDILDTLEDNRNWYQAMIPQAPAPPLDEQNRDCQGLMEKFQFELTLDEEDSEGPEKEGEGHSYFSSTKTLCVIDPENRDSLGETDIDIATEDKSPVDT
T3 sequence (Q08499 186-808): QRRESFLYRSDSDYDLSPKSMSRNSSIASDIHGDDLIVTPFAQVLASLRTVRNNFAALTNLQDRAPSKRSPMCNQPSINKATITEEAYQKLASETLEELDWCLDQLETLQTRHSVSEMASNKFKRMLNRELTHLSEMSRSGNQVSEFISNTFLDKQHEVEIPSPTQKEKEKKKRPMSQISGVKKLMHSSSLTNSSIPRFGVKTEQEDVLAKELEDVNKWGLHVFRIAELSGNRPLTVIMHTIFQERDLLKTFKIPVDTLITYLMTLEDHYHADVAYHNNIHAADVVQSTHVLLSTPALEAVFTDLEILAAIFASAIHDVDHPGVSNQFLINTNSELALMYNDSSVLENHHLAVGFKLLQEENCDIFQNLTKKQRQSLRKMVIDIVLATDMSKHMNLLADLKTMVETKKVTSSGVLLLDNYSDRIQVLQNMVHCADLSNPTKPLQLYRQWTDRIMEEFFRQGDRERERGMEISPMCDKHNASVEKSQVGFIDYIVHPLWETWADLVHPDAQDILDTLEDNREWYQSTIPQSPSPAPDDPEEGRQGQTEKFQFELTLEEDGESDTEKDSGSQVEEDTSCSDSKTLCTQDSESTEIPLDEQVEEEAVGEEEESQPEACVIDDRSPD
T4 sequence (P27815 2-825 isoform P27815-6): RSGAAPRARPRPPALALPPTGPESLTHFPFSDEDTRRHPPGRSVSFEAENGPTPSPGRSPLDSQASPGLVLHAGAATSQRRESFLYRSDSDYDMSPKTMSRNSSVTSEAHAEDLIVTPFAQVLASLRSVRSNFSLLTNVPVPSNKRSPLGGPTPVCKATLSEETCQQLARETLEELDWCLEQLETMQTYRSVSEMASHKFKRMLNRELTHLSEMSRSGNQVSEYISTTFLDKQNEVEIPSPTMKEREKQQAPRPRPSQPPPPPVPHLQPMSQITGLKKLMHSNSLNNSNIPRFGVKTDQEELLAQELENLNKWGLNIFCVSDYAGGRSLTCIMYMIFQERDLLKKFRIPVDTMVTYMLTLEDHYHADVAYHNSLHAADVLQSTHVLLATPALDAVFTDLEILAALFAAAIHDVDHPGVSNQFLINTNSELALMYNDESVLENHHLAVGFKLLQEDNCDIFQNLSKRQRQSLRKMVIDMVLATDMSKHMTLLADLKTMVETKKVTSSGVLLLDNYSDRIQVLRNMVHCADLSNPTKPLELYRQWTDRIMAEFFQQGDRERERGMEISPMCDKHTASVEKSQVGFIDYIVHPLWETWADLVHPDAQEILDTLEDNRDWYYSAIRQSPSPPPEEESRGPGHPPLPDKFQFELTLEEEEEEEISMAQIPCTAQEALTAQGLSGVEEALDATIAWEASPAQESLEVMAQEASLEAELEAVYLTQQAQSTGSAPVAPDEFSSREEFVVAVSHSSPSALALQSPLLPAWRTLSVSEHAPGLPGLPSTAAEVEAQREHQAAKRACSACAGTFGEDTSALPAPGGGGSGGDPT

Consider `O=C(NC1CC1)c1nn2cccnc2c1-c1ccc2ncoc2c1` [Example 43, 3-(1,3-benzoxazol-6-yl)-N-cyclopropylpyrazolo[1,5-a]pyrimidine-2-carboxamide], for which the IC50 is 221 nM on Human PDE4B1, 178 nM on Human PDE4C1, greater than 14400 nM at human PDE4D3 and 146 nM at Human PDE4A3.
The matching figures for `N#Cc1ccc(-c2c(C(=O)NC3CC3)nn3cccnc23)cn1` [Example 44, 3-(6-cyanopyridin-3-yl)-N-cyclopropylpyrazolo[1,5-a]pyrimidine-2-carboxamide]: 358 nM, 898 nM, greater than 11900 nM and 192 nM.
For `N#Cc1cc(F)c(-c2c(C(=O)NC3CC3)nn3cccnc23)cc1F` [Example 45, 3-(4-cyano-2,5-difluorophenyl)-N-cyclopropylpyrazolo[1,5-a]pyrimidine-2-carboxamide], the IC50 on Human PDE4B1 came out at 51 nM; on Human PDE4C1, 42.1 nM; on human PDE4D3, 1320 nM; at Human PDE4A3, 22 nM.
The matching figures for `N#Cc1cc(F)c(-c2c(C(=O)N3CCC3)nn3cccnc23)cc1F` [Example 46, 4-[2-(azetidin-1-ylcarbonyl)pyrazolo[1,5-a]pyrimidin-3-yl]-2,5-difluorobenzonitrile]: 54.5 nM, 44 nM, 979 nM and 14.7 nM.
The matching figures for `O=C(NC1CC1)c1nn2cccnc2c1-c1cc(F)c(Cl)cc1F` [Example 47, 3-(4-chloro-2,5-difluorophenyl)-N-cyclopropylpyrazolo[1,5-a]pyrimidine-2-carboxamide]: 24.4 nM, 13.9 nM, 819 nM and 4.69 nM.
In the case of `O=C(c1nn2cccnc2c1-c1cccc(Cl)c1)N1CCC1` [Example 48, azetidin-1-yl[3-(3-chlorophenyl)pyrazolo[1,5-a]pyrimidin-2-yl]methanone], the IC50 on Human PDE4B1 is 236 nM; at Human PDE4C1, 76.4 nM; on human PDE4D3, greater than 16000 nM; on Human PDE4A3, 167 nM.
With `O=C(c1nn2cccnc2c1-c1cc(F)c(Cl)cc1F)N1CCC1` [Example 49, azetidin-1-yl[3-(4-chloro-2,5-difluorophenyl)pyrazolo[1,5-a]pyrimidin-2-yl]methanone], the IC50 amounted to 63.5 nM on Human PDE4B1, 29.6 nM on Human PDE4C1, 1290 nM on human PDE4D3 and 7.28 nM at Human PDE4A3.
With `CCNC(=O)c1nn2cccnc2c1-c1ccnc(OC(F)F)c1` [Example 50, 3-[2-(difluoromethoxy)pyridin-4-yl]-N-ethylpyrazolo[1,5-a]pyrimidine-2-carboxamide], the IC50 at Human PDE4B1 was 48.3 nM; on Human PDE4C1, 70.8 nM; at human PDE4D3, greater than 4870 nM; on Human PDE4A3 it was 17.7 nM.
The matching figures for `Cc1cc(Cl)ccc1-c1c(C(=O)NC(C)C)nn2cccnc12` [Example 51, 3-(4-chloro-2-methylphenyl)-N-(propan-2-yl)pyrazolo[1,5-a]pyrimidine-2-carboxamide]: 488 nM, 314 nM, greater than 16500 nM and 144 nM.
The matching figures for `CCNC(=O)c1nn2cccnc2c1-c1ccc(Cl)cc1` [Example 52, 3-(4-chlorophenyl)-N-ethylpyrazolo[1,5-a]pyrimidine-2-carboxamide]: 234 nM, 115 nM, 5930 nM and 142 nM.
The matching figures for `CCNC(=O)c1nn2cccnc2c1-c1ccc(Cl)c(F)c1` [Example 53, 3-(4-chloro-3-fluorophenyl)-N-ethylpyrazolo[1,5-a]pyrimidine-2-carboxamide]: 32 nM, 21.8 nM, 830 nM and 7.66 nM.
Consider `Cc1cc(Cl)c(F)cc1-c1c(C(=O)NC(C)C)nn2cccnc12` [Example 54, 3-(4-chloro-5-fluoro-2-methylphenyl)-N-(propan-2-yl)pyrazolo[1,5-a]pyrimidine-2-carboxamide], for which the IC50 came to 24.5 nM on Human PDE4B1, 59 nM on Human PDE4C1, 469 nM on human PDE4D3 and 12.9 nM on Human PDE4A3.
The matching figures for `Cc1cc(Cl)ccc1-c1c(C(=O)NC2CC2)nn2cc(F)cnc12` [Example 55, 3-(4-chloro-2-methylphenyl)-N-cyclopropyl-6-fluoropyrazolo[1,5-a]pyrimidine-2-carboxamide]: 30.5 nM, 28.5 nM, 1060 nM and 8.75 nM.
The matching figures for `O=C(NC1CC1)c1nn2cc(F)cnc2c1-c1ccnc(OC(F)F)c1` [Example 56, N-cyclopropyl-3-[2-(difluoromethoxy)pyridin-4-yl]-6-fluoropyrazolo[1,5-a]pyrimidine-2-carboxamide]: 22.3 nM, 19.4 nM, 78.4 nM and 3.92 nM.
For `O=C(NC1CC1)c1nn2cc(F)cnc2c1-c1cc(F)c(Cl)c(F)c1` [Example 57, 3-(4-chloro-3,5-difluorophenyl)-N-cyclopropyl-6-fluoropyrazolo[1,5-a]pyrimidine-2-carboxamide], the IC50 on Human PDE4B1 worked out at 2.71 nM; on Human PDE4C1 it was 2.83 nM; at human PDE4D3, 92.1 nM; on Human PDE4A3, 0.461 nM.
The matching figures for `O=C(NC1CC1)c1nn2cc(F)cnc2c1-c1ccc(Cl)c(F)c1F` [Example 58, 3-(4-chloro-2,3-difluorophenyl)-N-cyclopropyl-6-fluoropyrazolo[1,5-a]pyrimidine-2-carboxamide]: 20.1 nM, 9 nM, 430 nM and 4.04 nM.
The matching figures for `O=C(NC1CC1)c1nn2cc(F)cnc2c1-c1ccc(Cl)c(F)c1` [Example 59, 3-(4-chloro-3-fluorophenyl)-N-cyclopropyl-6-fluoropyrazolo[1,5-a]pyrimidine-2-carboxamide]: 4.93 nM, 7.72 nM, 159 nM and 1.19 nM.
For the compound `O=C(NC1CC1)c1nn2cccnc2c1-c1ccc2ocnc2c1` [Example 60, 3-(1,3-benzoxazol-5-yl)-N-cyclopropylpyrazolo[1,5-a]pyrimidine-2-carboxamide], the IC50 on Human PDE4B1 was 226 nM; at Human PDE4C1, 650 nM; at human PDE4D3, greater than 15500 nM; on Human PDE4A3 it was 47.1 nM.
For `Cc1cc(Cl)c(F)cc1-c1c(C(=O)N2CCC2)nn2cccnc12` [Example 61, azetidin-1-yl[3-(4-chloro-5-fluoro-2-methylphenyl)pyrazolo[1,5-a]pyrimidin-2-yl]methanone], the IC50 at Human PDE4B1 came to 8 nM; on Human PDE4C1 it was 20 nM; on human PDE4D3 it was 98 nM; at Human PDE4A3 it was 2 nM.
The matching figures for `N#Cc1c(F)cc(-c2c(C(=O)N3CCC3)nn3cccnc23)cc1F` [Example 62, 4-[2-(azetidin-1-ylcarbonyl)pyrazolo[1,5-a]pyrimidin-3-yl]-2,6-difluorobenzonitrile]: 17.3 nM, 37.8 nM, 242 nM and 4.33 nM.
For the compound `Cc1ccc(-c2c(C(=O)NC3CC3)nn3cc(F)cnc23)cc1F` [Example 63, N-cyclopropyl-6-fluoro-3-(3-fluoro-4-methylphenyl)pyrazolo[1,5-a]pyrimidine-2-carboxamide], the IC50 on Human PDE4B1 came to 13.2 nM; at Human PDE4C1, 9.5 nM; at human PDE4D3 it was 459 nM; at Human PDE4A3 it was 4.02 nM.
The matching figures for `Cc1cc(Cl)c(F)cc1-c1c(C(=O)NC2CC2)nn2cc(F)cnc12` [Example 64, 3-(4-chloro-5-fluoro-2-methylphenyl)-N-cyclopropyl-6-fluoropyrazolo[1,5-a]pyrimidine-2-carboxamide]: 2 nM, 4.47 nM, 52.6 nM and 1 nM.
